Legend:
Rattus norvegicus [1] = species: Rattus norvegicus; assay: Inhibitory concentration against glucagon receptor -stimulated cAMP production in rat liver homogenates; assay type: functional
Rattus norvegicus [2] = species: Rattus norvegicus; assay: Tested for its ability to increase cAMP production (in the absence of glucagon) in rat liver homogenates; no measurable agonist activity; assay type: functional
Glucagon receptor = Glucagon receptor (Rattus norvegicus, UniProt P30082); assay: Tested against glucagon receptor for its ability to displace radiolabeled ([125I]-glucagon) in […] liver
Chain of Glucagon receptor (P30082 whole entry): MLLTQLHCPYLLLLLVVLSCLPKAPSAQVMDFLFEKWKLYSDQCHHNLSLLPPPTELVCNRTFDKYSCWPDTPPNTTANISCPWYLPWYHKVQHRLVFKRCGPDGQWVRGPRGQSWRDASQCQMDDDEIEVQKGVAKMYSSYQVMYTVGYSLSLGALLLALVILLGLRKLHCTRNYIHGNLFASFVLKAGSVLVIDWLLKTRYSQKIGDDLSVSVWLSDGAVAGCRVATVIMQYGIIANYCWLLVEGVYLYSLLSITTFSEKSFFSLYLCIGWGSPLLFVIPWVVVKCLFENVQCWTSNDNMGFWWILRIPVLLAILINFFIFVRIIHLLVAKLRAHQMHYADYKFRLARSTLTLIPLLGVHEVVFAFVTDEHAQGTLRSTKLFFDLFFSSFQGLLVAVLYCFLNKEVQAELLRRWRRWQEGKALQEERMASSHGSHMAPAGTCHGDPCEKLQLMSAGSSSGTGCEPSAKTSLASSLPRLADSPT

CN(C)CCCN(C)c1nc2cc(Cl)c(Cl)cc2nc1/C=C/c1ccccc1
IC50 (Rattus norvegicus [1]): 7 µM | IC50 (Rattus norvegicus [2]): > 32 µM | IC50 (Glucagon receptor): 4 µM
